Experimental data: ChEMBL document CHEMBL1146725, “Discovery and SAR of potent, orally available and brain-penetrable 5,6-dihydro-4H-3-thia-1-aza-benzo[e]azulen- and 4,5-dihydro-6-oxa-3-thia-1-aza-benzo[e]azulen derivatives as neuropeptide Y Y5 receptor antagonists” (Bioorg Med Chem Lett, 2004)
pIC50: −log10 of the molar value.

Molecular target: T1, Neuropeptide Y receptor type 5 (Homo sapiens, UniProt Q15761)
T1 sequence (Q15761 whole entry): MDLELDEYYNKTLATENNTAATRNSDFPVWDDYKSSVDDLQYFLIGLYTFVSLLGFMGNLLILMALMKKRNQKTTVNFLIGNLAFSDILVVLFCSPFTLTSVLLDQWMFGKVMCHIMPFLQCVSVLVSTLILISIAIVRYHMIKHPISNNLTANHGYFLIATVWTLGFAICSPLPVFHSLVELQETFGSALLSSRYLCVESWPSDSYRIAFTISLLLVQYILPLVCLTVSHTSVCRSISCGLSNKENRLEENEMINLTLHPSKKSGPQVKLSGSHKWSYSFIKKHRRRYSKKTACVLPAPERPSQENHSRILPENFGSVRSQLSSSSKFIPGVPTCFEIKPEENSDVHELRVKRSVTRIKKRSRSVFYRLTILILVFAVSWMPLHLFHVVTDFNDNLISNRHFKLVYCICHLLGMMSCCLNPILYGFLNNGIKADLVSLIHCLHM
Experiment: In vitro binding affinity against human neuropeptide Y5 receptor

Compound	pIC50
Cc1ccc2c(c1)-c1nc(NCC3CCN(C(=O)c4ccccn4)CC3)sc1CCO2	7.60
O=C(CN1CCCCC1)N[C@H]1CC[C@H](CNc2nc3c(s2)CCCc2ccc(F)cc2-3)CC1	7.54
Fc1ccc(-c2csc(Nc3ccccc3)n2)cc1	5.80
CN(C)S(=O)(=O)NC[C@H]1CC[C@H](Nc2nc3c(s2)-c2ccccc2Sc2ccccc2-3)CC1	7.82
CN(C)CCCC(=O)N[C@H]1CC[C@H](CNc2nc3c(s2)CCCc2ccc(F)cc2-3)CC1	6.54
CCCCC(=O)N1CCC(CNc2nc3c(s2)CCOc2ccc(C)cc2-3)CC1	8.15
CC(C)N1CCN(CC(=O)N[C@H]2CC[C@H](CNc3nc4c(s3)CCCc3ccc(F)cc3-4)CC2)CC1	6.68
CC(C)C(=O)N1CCC(CNc2nc3c(s2)CCOc2cc(F)c(Cl)cc2-3)CC1	7.89
CC(=O)NC1CCN(CC(=O)Nc2nc3c(s2)CCCc2ccc(F)cc2-3)CC1	7.11
CN1CCN(CC(=O)N2CCC(CNc3nc4c(s3)CCCc3ccc(F)cc3-4)CC2)CC1	7.62
O=C(CCN1CCCCC1)N[C@H]1CC[C@H](CNc2nc3c(s2)CCCc2ccc(F)cc2-3)CC1	6.82
CCOCC(=O)N1CCC(CNc2nc3c(s2)CCOc2ccc(F)cc2-3)CC1	7.55
CCCCC(=O)N1CCC(CNc2nc3c(s2)CCOc2cc(F)c(F)cc2-3)CC1	7.42
O=C(c1ccccc1F)N1CCC(CNc2nc3c(s2)CCCc2ccc(F)cc2-3)CC1	7.70
CS(=O)(=O)NC[C@H]1CC[C@H](Nc2nc(-c3ccc(F)cc3)cs2)CC1	7.64
O=C(CN1CCCCC1)N1CCC(CNc2nc3c(s2)CCCc2ccc(Cl)cc2-3)CC1	8.15
O=C(CN1CCCCC1)N1CCC(CNc2nc3c(s2)CCCc2ccccc2-3)CC1	8.22
CC(=O)C1(c2ccccc2)CCC(CC(=O)Nc2nc3c(s2)CCCc2ccc(F)cc2-3)CC1 (centres undefined)	7.82
O=C(N[C@H]1CC[C@H](CNc2nc3c(s2)CCCc2ccc(F)cc2-3)CC1)c1cccs1	7.82
Nc1nc2c(s1)-c1ccccc1Sc1ccccc1-2	5.74
O=C(N[C@H]1CC[C@H](CNc2nc3c(s2)CCCc2ccc(F)cc2-3)CC1)C1CC1	8.22
CCCCC(=O)N1CCC(CNc2nc3c(s2)CCOc2ccc(OC)cc2-3)CC1	7.77
CN(C)CC(=O)N[C@H]1CC[C@H](CNc2nc3c(s2)CCCc2ccc(F)cc2-3)CC1	7.09
CCOCC(=O)N1CCC(CNc2nc3c(s2)CCOc2ccc(C)cc2-3)CC1	7.74
CCCCC(=O)N1CCC(CNc2nc3c(s2)CCOc2cc(F)c(Cl)cc2-3)CC1	7.70

Second part, the molecule after the results:

pIC50	Compound
8.22	O=C(CC1CC1)N[C@H]1CC[C@H](CNc2nc3c(s2)CCCc2ccc(F)cc2-3)CC1
8.52	CN(CC(=O)N1CCC(CNc2nc3c(s2)CCCc2ccc(F)cc2-3)CC1)CC1CC1
8.70	COCC(=O)N1CCC(CNc2nc3c(s2)CCCc2ccc(F)cc2-3)CC1
8.70	COCCC(=O)N1CCC(CNc2nc3c(s2)CCCc2ccc(F)cc2-3)CC1
8.40	CN(C)CC(=O)N1CCC(CNc2nc3c(s2)CCCc2ccc(F)cc2-3)CC1
8.22	CCCN(C)CC(=O)N[C@H]1CC[C@H](CNc2nc3c(s2)CCCc2ccc(F)cc2-3)CC1
8.22	CCCCC(=O)N[C@H]1CC[C@H](CNc2nc3c(s2)CCCc2ccc(F)cc2-3)CC1
8.22	O=C(CNCC1CCCO1)N1CCC(CNc2nc3c(s2)CCCc2ccc(F)cc2-3)CC1 (centres undefined)
8.30	O=C1CCCN1[C@H]1CC[C@H](CNc2nc3c(s2)CCCc2ccc(F)cc2-3)CC1
8.70	CC(C)C(=O)N1CCC(CNc2nc3c(s2)CCCc2ccc(F)cc2-3)CC1
8.70	O=C(CN1CCOCC1)N1CCC(CNc2nc3c(s2)CCCc2ccc(F)cc2-3)CC1
8.70	COC(=O)N[C@H]1CC[C@H](CNc2nc3c(s2)CCCc2ccc(F)cc2-3)CC1
8.40	CCOC(=O)N1CCC(CNc2nc3c(s2)CCCc2ccc(F)cc2-3)CC1
8.70	O=C(C1CC1)N1CCC(CNc2nc3c(s2)CCCc2ccc(F)cc2-3)CC1
